From US9216999B2, “Substituted pyrrolo[2,3-h][1,6]naphthyridines and compositions thereof as JAK inhibitors” (priority 2011, dated 2015) come the findings set out here.

For assay [1], the target named is T1, JAK3 (Homo sapiens (Human), UniProt P52333). Kind of assay: JAK3 enzyme assay (Assay Example^b 1).
The target in another assay is JAK2 (Homo sapiens (Human), UniProt O60674). The assay is described as follows: Enzyme assay (Assay Example^a 1), JAK2. Format: biochemical. Conditions: ATP 100 μM.
The next assay concerns the target JAK1 (Homo sapiens (Human), UniProt P23458). The assay is described as follows: Enzyme assay (Assay Example^a 1), JAK1. Format: biochemical. The following applies: ATP 100 μM.
Assay [2] deals with T1, JAK3. Kind of assay: Enzyme assay (Assay Example^a 1), JAK3. Format: biochemical. The following applies: ATP 100 μM.
The target in a further assay is Tyk2 (Homo sapiens (Human), UniProt P29597). Kind of assay: Enzyme assay (Assay Example^a 1), Tyk2. Format: biochemical. Conditions: ATP 100 μM.
The mark [3] stands for this setting: IC50 (μM) JAK3, Table^b 80, ATP 100 μM.

Each structure is given as a SMILES string. A value given as a limit tells only on which side of the number the result lay.

Tyk2, sequence (P29597 whole entry): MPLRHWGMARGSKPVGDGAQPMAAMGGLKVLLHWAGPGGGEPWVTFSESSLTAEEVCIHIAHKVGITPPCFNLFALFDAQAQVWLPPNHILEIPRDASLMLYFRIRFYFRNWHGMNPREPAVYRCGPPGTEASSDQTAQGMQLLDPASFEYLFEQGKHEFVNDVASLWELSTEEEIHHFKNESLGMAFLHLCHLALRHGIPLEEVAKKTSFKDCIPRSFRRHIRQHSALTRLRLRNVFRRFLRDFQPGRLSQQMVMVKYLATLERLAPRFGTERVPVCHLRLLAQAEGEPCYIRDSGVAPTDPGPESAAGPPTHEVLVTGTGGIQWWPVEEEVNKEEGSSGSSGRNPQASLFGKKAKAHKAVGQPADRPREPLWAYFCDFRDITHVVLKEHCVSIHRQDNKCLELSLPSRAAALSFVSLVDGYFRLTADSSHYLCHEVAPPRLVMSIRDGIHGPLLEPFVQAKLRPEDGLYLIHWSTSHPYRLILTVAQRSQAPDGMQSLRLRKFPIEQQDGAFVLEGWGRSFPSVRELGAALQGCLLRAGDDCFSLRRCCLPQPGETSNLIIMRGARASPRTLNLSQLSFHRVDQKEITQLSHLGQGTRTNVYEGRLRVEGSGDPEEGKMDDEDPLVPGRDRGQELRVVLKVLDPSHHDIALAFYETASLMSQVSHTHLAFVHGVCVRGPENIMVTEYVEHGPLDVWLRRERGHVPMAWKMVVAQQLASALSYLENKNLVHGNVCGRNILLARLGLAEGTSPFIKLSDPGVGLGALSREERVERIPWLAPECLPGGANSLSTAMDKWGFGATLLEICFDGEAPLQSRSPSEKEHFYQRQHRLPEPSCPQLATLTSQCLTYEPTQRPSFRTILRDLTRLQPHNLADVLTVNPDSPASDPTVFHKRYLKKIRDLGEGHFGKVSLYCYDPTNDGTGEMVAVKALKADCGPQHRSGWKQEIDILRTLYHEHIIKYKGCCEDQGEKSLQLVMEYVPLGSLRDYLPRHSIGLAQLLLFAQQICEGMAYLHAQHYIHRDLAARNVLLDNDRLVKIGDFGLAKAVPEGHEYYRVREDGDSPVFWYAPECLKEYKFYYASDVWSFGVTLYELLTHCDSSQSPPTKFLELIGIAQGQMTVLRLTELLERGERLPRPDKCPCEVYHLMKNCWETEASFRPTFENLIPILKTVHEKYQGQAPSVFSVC
T1 sequence (P52333 whole entry): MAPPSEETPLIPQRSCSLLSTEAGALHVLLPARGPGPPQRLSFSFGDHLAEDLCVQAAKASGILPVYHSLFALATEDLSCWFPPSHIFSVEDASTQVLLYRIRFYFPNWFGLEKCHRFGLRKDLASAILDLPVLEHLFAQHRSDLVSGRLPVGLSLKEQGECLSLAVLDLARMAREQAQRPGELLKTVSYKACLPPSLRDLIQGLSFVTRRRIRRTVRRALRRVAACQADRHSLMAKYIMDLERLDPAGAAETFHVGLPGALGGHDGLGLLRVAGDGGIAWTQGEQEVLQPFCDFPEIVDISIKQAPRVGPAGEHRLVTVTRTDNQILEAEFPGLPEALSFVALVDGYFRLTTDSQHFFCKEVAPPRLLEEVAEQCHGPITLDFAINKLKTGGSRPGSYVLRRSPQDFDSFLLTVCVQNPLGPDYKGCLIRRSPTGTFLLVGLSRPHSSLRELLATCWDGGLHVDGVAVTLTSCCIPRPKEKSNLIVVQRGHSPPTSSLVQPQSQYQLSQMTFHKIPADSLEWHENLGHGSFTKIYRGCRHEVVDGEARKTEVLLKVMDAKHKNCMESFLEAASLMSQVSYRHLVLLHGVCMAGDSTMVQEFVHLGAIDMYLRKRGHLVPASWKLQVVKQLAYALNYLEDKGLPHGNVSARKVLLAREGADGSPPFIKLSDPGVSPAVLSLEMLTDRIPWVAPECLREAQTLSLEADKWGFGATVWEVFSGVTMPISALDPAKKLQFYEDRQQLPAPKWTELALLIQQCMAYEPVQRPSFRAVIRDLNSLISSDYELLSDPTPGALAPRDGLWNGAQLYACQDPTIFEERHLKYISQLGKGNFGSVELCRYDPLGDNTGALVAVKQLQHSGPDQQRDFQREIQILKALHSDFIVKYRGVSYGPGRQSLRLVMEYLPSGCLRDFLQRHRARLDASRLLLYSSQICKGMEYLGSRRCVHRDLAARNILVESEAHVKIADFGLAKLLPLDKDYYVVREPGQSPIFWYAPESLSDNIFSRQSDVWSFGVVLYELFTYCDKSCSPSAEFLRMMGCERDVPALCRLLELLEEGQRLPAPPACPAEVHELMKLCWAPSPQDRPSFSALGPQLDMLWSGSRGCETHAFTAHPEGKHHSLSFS

For `C[C@@H]1CCN(S(=O)(=O)c2ccccc2C#N)C[C@@H]1n1ccc(=O)c2cnc3[nH]ccc3c21` (racemic) [compound 25], the half-inhibitory concentration (IC50) (as a rule, the concentration at which inhibition is half-maximal) on JAK3 [1] (setting [3]) was 0.07 µM.
`C[C@@H]1CCN(C(=O)c2ccccc2C(F)(F)F)C[C@@H]1n1ccc(=O)c2cnc3[nH]ccc3c21` (racemic) [compound 30]: the IC50 at JAK3 [1] (setting [3]) is over 1 µM.
Still for that read-out and setting: under `C[C@@H]1CCN(C(=O)c2cccc(C(F)(F)F)c2)C[C@@H]1n1ccc(=O)c2cnc3[nH]ccc3c21` (racemic) [compound 31] stands over 1 µM; under `C[C@@H]1CCN(C(=O)OCc2ccccc2)C[C@@H]1n1ccc(=O)c2cnc3[nH]ccc3c21` (racemic) [compound 35], 0.11 µM.
Same read-out and setting: the figure for `C[C@@H]1CCN(Cc2cccc(C(F)(F)F)c2)C[C@@H]1n1ccc(=O)c2cnc3[nH]ccc3c21` (racemic) [compound 39] is 0.18 µM.
On to `CCC(C)CN1CCC(n2c(=O)[nH]c(=O)c3cnc4[nH]ccc4c32)CC1` (racemic) [compound 92], for which the IC50 on JAK3 [1] (IC50 (μM) JAK3, ATP 100 μM) was over 1 µM.
Still for that read-out and setting: under `CC(C#N)n1c(=O)c2cnc3[nH]ccc3c2n(C2CCCCC2)c1=O` (racemic) [compound 146] stands over 1 µM; under `N#CCC(=O)N(CC(F)(F)F)C[C@H]1CC[C@H](n2c(=O)[nH]c(=O)c3cnc4[nH]ccc4c32)CC1` [Synthetic Example^b 135, 2-Cyano-N-{[trans-4-(2,4-dioxo-2,3,4,7-tetrahydro-1H-pyrrolo[3′,2′:5,6]pyrido[4,3-d]pyrimidin-1-yl)cyclohexyl]methyl}-N-(2,2,2-trifluoroethyl)acetamide], 0.5 µM.
On to `O=c1[nH]c(=O)n(C2CCN(Cc3ccc(C(F)(F)F)cc3)CC2)c2c1cnc1[nH]ccc12` [compound 52], for which the IC50 against JAK3 [1] (setting [3]) is over 1 µM.
The same measure, in the same setting: under `O=c1ccn(C2CCN(Cc3ccccc3)CC2)c2c1cnc1[nH]ccc12` [compound 54] stands 0.47 µM.
On the same count and under the same terms, the figure for `CO[C@H]1CC[C@H](n2ccc(=O)c3cnc4[nH]ccc4c32)CC1` [compound 70] is over 1 µM; for `O=c1ccn(C2CCN(Cc3ccc(C(F)(F)F)o3)CC2)c2c1cnc1[nH]ccc12` [compound 71] it is 0.46 µM.
On the same count and under the same terms, under `O=c1ccn(C2CCN(Cc3ccc([N+](=O)[O-])o3)CC2)c2c1cnc1[nH]ccc12` [compound 72] stands over 1 µM.
In turn, `O=c1ccn(C2CCN(Cc3ccc(Cl)c(Cl)c3)CC2)c2c1cnc1[nH]ccc12` [compound 75] yielded an IC50 on JAK3 [1] (setting [3]) of over 1 µM.
As to `O=c1ccn(C2CCN(Cc3ccc(Br)s3)CC2)c2c1cnc1[nH]ccc12` [compound 81], half-maximal inhibition against JAK3 [1] (setting [3]) (IC50) was put at 0.031 µM.
Still for that read-out and setting: the figure for `O=c1ccn(C2CCN(Cc3cnc(Br)s3)CC2)c2c1cnc1[nH]ccc12` [compound 83] is 0.62 µM.
The same measure, in the same setting: the figure for `O=c1ccn(C2CCN(Cc3ccc4[nH]ccc4c3)CC2)c2c1cnc1[nH]ccc12` [compound 85] is over 1 µM.
Turning to `O=c1[nH]c(=O)n(C2CCN(CC3CC3)CC2)c2c1cnc1[nH]ccc12` [compound 91], the IC50 against JAK3 [1] (IC50 (μM) JAK3, ATP 100 μM) is over 1 µM.
On to `CN(C)C1CN(C[C@H]2CC[C@H](c3nnn4cnc5[nH]ccc5c34)CC2)C1` [compound 423, 1-{[trans-4-(7H-pyrrolo[3,2-e][1,2,3]triazolo[1,5-c]pyrimidin-1-yl)cyclohexyl]methyl}-N,N-dimethylazetidin-3-amine], for which the IC50 at JAK2 was 0.72 µM; against JAK1, 0.077 µM; at JAK3 [2], over 1 µM; on Tyk2, over 1 µM.
In the case of `CCN(C)C1CN(C[C@H]2CC[C@H](c3nnn4cnc5[nH]ccc5c34)CC2)C1` [compound 424, 1-{[trans-4-(7H-pyrrolo[3,2-e][1,2,3]triazolo[1,5-c]pyrimidin-1-yl)cyclohexyl]methyl}-N-ethyl-N-methylazetidin-3-amine], the IC50 is 0.48 µM against JAK2, 0.044 µM against JAK1, over 1 µM at JAK3 [2] and over 1 µM at Tyk2.
Consider `OC1(C(F)(F)F)CN(C[C@H]2CC[C@H](c3nnn4cnc5[nH]ccc5c34)CC2)C1` [compound 425, 1-{[trans-4-(7H-Pyrrolo[3,2-e][1,2,3]triazolo[1,5-c]pyrimidin-1-yl)cyclohexyl]methyl}-3-(trifluoromethyl)azetidin-3-ol], for which the IC50 turned out to be 0.022 µM at JAK2, 0.0025 µM against JAK1, 0.082 µM against JAK3 [2] and 0.37 µM at Tyk2.
In the case of `O=C(NCC(F)(F)F)C1CN(C[C@H]2CC[C@H](c3nnn4cnc5[nH]ccc5c34)CC2)C1` [compound 426, 1-{[trans-4-(7H-Pyrrolo[3,2-e][1,2,3]triazolo[1,5-c]pyrimidin-1-yl)cyclohexyl]methyl}-N-(2,2,2-trifluoroethyl)azetidine-3-carboxamide], the IC50 on JAK2 was 0.062 µM; against JAK1 it was 0.011 µM; against JAK3 [2], 0.87 µM; at Tyk2, 0.58 µM.
On the same counts, the results for `CS(=O)(=O)NC[C@H]1CC[C@H](c2nnn3cnc4[nH]ccc4c23)CC1` [compound 427, N-{[trans-4-(7H-Pyrrolo[3,2-e][1,2,3]triazolo[1,5-c]pyrimidin-1-yl)cyclohexyl]methyl}methanesulfonamide] are 0.0012 µM, 0.00016 µM, 0.03 µM and 0.016 µM.
On the same counts, the results for `CC(C)(C)OC(=O)N1CC(CC#N)(NC[C@H]2CC[C@H](c3nnn4cnc5[nH]ccc5c34)CC2)C1` [compound 428, tert-Butyl 3-({[trans-4-(7H-pyrrolo[3,2-e][1,2,3]triazolo[1,5-c]pyrimidin-1-yl)cyclohexyl]methyl}amino)-3-(cyanomethyl)azetidine-1-carboxylate] are 0.75 µM, 0.19 µM, over 1 µM and over 1 µM.
The matching figures for `O/N=C/[C@H]1CC[C@H](c2nnn3cnc4[nH]ccc4c23)CC1` [compound 429, 4-(7H-Pyrrolo[3,2-e][1,2,3]triazolo[1,5-c]pyrimidin-1-yl)cyclohexanecarbaldehyde oxime]: 0.035 µM, 0.017 µM, 0.79 µM and 0.52 µM.
For the compound `N#C[C@H]1CC[C@H](c2nnn3cnc4[nH]ccc4c23)CC1` [compound 430, trans-4-(7H-Pyrrolo[3,2-e][1,2,3]triazolo[1,5-c]pyrimidin-1-yl)cyclohexanecarbonitrile], the IC50 against JAK2 is 0.049 µM; against JAK1, 0.0086 µM; against JAK3 [2], over 1 µM; against Tyk2 it was 0.41 µM.
The matching figures for `N#CC(C#N)=C[C@H]1CC[C@H](c2nnn3cnc4[nH]ccc4c23)CC1` [compound 431, 2-{[trans-4-(7H-Pyrrolo[3,2-e][1,2,3]triazolo[1,5-c]pyrimidin-1-yl)cyclohexyl]methylene}malononitrile]: 0.013 µM, 0.0048 µM, 0.29 µM and 0.24 µM.
The matching figures for `C=C1CCC(c2nnn3cnc4[nH]ccc4c23)CC1` [compound 433, 1-(4-Methylenecyclohexyl)-7H-pyrrolo[3,2-e][1,2,3]triazolo[1,5-c]pyrimidine]: 0.027 µM, 0.0081 µM, 0.71 µM and 0.12 µM.
The matching figures for `N#CC=C1CCC(c2nnn3cnc4[nH]ccc4c23)CC1` (centres unmarked) [compound 434, 2-[4-(7H-pyrrolo[3,2-e][1,2,3]triazolo[1,5-c]pyrimidin-1-yl)cyclohexylidene]acetonitrile]: 0.014 µM, 0.0023 µM, 0.49 µM and 0.034 µM.
Turning to `CCOC(=O)C=C1CCC(c2nnn3cnc4[nH]ccc4c23)CC1` (centres unmarked) [compound 436, ethyl 2-[4-(7H-pyrrolo[3,2-e][1,2,3]triazolo[1,5-c]pyrimidin-1-yl)cyclohexylidene]acetate], the IC50 is 0.17 µM against JAK2, 0.035 µM at JAK1, over 1 µM on JAK3 [2] and over 1 µM on Tyk2.
For the compound `CC(C#N)=C1CCC(c2nnn3cnc4[nH]ccc4c23)CC1` (centres unmarked) [compound 437, 2-[4-(7H-pyrrolo[3,2-e][1,2,3]triazolo[1,5-c]pyrimidin-1-yl)cyclohexylidene]propanenitrile], the IC50 on JAK2 was found to be 0.055 µM; at JAK1, 0.02 µM; against JAK3 [2], 0.57 µM; against Tyk2, 0.45 µM.
On the same counts, the results for `CCOC(=O)CC1CCC(c2nnn3cnc4[nH]ccc4c23)CC1` (centres unmarked) [compound 438, Ethyl 2-[4-(7H-pyrrolo[3,2-e][1,2,3]triazolo[1,5-c]pyrimidin-1-yl)cyclohexyl]acetate] are 0.044 µM, 0.017 µM, 0.34 µM and 0.58 µM.
On to `N#C/C=C/[C@H]1CC[C@H](c2nnn3cnc4[nH]ccc4c23)CC1` [compound 440, (E)-3-[trans-4-(7H-Pyrrolo[3,2-e][1,2,3]triazolo[1,5-c]pyrimidin-1-yl)cyclohexyl]acrylonitrile], for which the IC50 was 0.031 µM against JAK2, 0.0053 µM against JAK1, 0.54 µM at JAK3 [2] and 0.14 µM at Tyk2.
The matching figures for `N#CC1CC12CCC(c1nnn3cnc4[nH]ccc4c13)CC2` (centres unmarked) [compound 444, 6-(7H-Pyrrolo[3,2-e][1,2,3]triazolo[1,5-c]pyrimidin-1-yl)spiro[2.5]octane-1-carbonitrile]: 0.009 µM, 0.0034 µM, 0.25 µM and 0.045 µM.
The matching figures for `OC12CC3CC(C1)CC(c1nnn4cnc5[nH]ccc5c14)(C3)C2` [compound 445, 3-(7H-Pyrrolo[3,2-e][1,2,3]triazolo[1,5-c]pyrimidin-1-yl)adamantan-1-ol]: 0.13 µM, 0.031 µM, 0.22 µM and 0.052 µM.
